Source: US6107316A, “Method for treating protozoal infections” (priority 1998, dated 2000)
≈ marks a conversion by molar mass, not a printed value.

Tests used:
Entamoeba histolytica = assay: in vitro growth inhibitory activity against E. histolytica; format: cell-based
Text: 35, pp. 2198-2202 (1991). Metronidazole was included as a standard in the test for comparative purposes.

[1] = test system: Encephalitozoon (Septata) intestinalis; assay: growth inhibitory activity against E. intestinalis grown on Vero cells (spore count); format: cell-based; details: 336 h, 1.0 μg/ml, spore number after 2 weeks, read-out: Growth (% of control)
Experimental: Compounds 2, 10 and 15 were tested for i,7 vitro growth inhibitory activity against E. intestinalis, grown on African green monkey kidney cells (Vero cells). Vero cells were grown in 25-cm^2 culture flasks at 37° C. in a humidified 5% carbon dioxide incubator. Cultures were maintained in minimal essential medium (Gibco BRL, Gaithersburg, Md., U.S.A.), supplemented with L-glutamine, Earle's salts, 5% heat-inactivated foetal calf serum (Hyclone Labs, Inc., U.S.A.), fungizone (2 μg/ml, Gibco BRL) and gentamicin (50 μg/ml, Gibco BRL). E. intestinalis spores were collected from the supernatant of an infected Vero cell culture and were used to infect normal cells to produce a fresh spore preparation for growth inhibition tests.
Growth inhibition tests were performed in 24-well culture plates. One ml of Vero cells (5×10^4 cells per ml) was placed in each well and the cells incubated for 12-15 hours at 37° C. The supernatant medium was then removed and replaced with 1 ml of medium containing 1.5-2.0×10^4 E. intestinalis spores per ml along with 1 μl of test compound dissolved in dimethylsulfoxide (DMSO) or DMSO alone for the control treatments without test compound. The plates were incubated at 37° C. and the medium was changed every 72 h along with fresh test compound in DMSO or DMSO alone (controls). After 2 weeks the supernatant was transferred from each well to a microcentiifuge tube, then concentrated by centrifugation with resuspension of the resulting E. intestinalis spore pellet in 300-500 μl fresh medium. The spore number in each sample was then determined by counting in a hemocytometer. The results in Table 11 show the effects of the test compounds on the number of spores and are expressed as a percentage of the spore number in the control treatment without test compound.

SMILES	EC50 (Entamoeba histolytica)	activity at 1 µg/mL [1]
CCC(C)(NC(=O)c1cc(Cl)c(N)c(Cl)c1)C(=O)CCl (stereo not drawn) [Compound 1]	38 µg/mL (≈ 113 µM)	
CCC(C)(NC(=O)c1cc(Cl)c(C)c(Cl)c1)C(=O)CCl (stereo not drawn) [Compound 10]	6 µg/mL (≈ 17.8 µM)	20%
